Square brackets hold non-standard residues; d marks the D form. Peptide text beside a SMILES is read from it. d(aThr) = C[C@@H](O)[C@@H](N)C(=O)O; Dhb = C/C=C(\N)C(=O)O
Biological target: Transient receptor potential cation channel subfamily V member 1 (Homo sapiens, UniProt Q8NER1)
Assay: Antagonist activity at human TRPV1 expressed in HEK293 cell assessed as inhibition of capsaicin-induced calcium flux by fluorometric analysis

Chain of Transient receptor potential cation channel subfamily V member 1 (Q8NER1 whole entry): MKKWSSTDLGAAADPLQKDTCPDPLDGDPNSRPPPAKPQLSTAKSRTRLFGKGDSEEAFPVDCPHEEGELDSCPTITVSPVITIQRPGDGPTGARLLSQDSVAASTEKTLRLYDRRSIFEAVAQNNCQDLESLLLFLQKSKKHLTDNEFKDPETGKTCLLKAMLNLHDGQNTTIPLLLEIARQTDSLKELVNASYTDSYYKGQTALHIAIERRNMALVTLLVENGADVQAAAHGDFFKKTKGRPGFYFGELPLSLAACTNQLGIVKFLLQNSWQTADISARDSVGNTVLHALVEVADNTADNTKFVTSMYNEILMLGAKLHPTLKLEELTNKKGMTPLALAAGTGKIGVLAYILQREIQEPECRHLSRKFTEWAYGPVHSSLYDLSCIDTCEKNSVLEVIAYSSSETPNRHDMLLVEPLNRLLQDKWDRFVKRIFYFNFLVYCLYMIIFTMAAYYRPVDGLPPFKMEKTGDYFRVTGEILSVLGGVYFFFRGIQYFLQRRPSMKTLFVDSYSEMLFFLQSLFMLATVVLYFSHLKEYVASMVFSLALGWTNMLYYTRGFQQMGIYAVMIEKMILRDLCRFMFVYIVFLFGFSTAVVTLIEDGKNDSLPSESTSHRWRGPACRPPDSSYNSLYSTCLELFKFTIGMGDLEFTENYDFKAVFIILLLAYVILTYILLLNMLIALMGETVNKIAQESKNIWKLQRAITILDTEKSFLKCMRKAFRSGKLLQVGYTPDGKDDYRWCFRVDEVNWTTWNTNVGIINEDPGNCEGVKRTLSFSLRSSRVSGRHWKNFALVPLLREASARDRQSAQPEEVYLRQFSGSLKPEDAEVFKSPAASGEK

C/C=C(\NC(=O)[C@H](C)NC(=O)[C@@H](NC(=O)[C@H](NC(=O)[C@H](Cc1ccccc1)NC(=O)[C@@H](CC(C)C)NC(=O)[C@@H](Cc1ccccc1)NC(C)=O)[C@@H](C)O)C(C)C)C(=O)O [Nobilamide A] (Ac-[dF][dL]F[d(aThr)]VA[Dhb]-OH)
IC50: 1660 µM

From BindingDB's records for doi:10.1021/jm101621u (University of Utah, 2011)
